Measured values as given in PMC12817916, “A small-molecule HSP90 inhibitor, NVP-HSP990, alleviates rotavirus infection” (Journal of Virology, 2025).
Like-named read-outs stand apart in the source and are kept apart here.

How the values were obtained:
HSP90β = details: targets the N-terminal of HSP90β; cited from earlier work
RV SA11 (G3P[2]) strain = assay: In vitro assay of RV replication inhibition (PFA); format: cell-based, Rotavirus; details: MOI = 1, 24 h p.i., PFA, read-out: IC50
Method: For analysis of effects of different […] on RV replication in vitro, 10,000 MA104 cells, 30,000 Caco-2 cells, and 80,000 HT-29 cells in 100 µL complete DMEM medium were seeded in 96-well plates and cultured at 37°C and 5% CO2 for 24 h. Then the cells were infected with RV Wa or SA11 strains (MOI = 1 (PFU/cell)) for 1 h. After removing the viruses and washing cells two times with DMEM, 100 µL DMEM containing the indicated concentrations of drugs was added to each well, and the plates were incubated at 37°C and 5% CO2. At 24 h p.i., the infected cells and culture medium were collected, frozen/thawed twice, and subjected to centrifugation at 1,000 × g for 3 min at room temperature. Then, the supernatant was subjected to analysis of viral load by PFA. […] Dose-response data (drug concentrations as x-axis and normalized inhibition percentages as y-axis) were fitted to a dose-response inhibition model ([Inhibitor] vs normalized response – Variable slope). […] Model adequacy was validated using goodness-of-fit metrics (R^2 ≥ 0.95), 95% confidence intervals, and residual distribution analysis.
Wa/SA11 strains were titrated by PFA, which was carried out as described (3) with some modification. Briefly, confluent monolayers of MA104 cells in 24-well tissue culture plates were infected with 100 µL supernatants containing infectious RV particles which were serially diluted (10^1, 10^2, 10^3, and 10^4) with DMEM containing 1 µg/mL trypsin and penicillin (10,000 U/mL)-streptomycin (5 µg/mL) (DMEM-T) for 1 h at 37°C. Then 400 µL agarose overlay (0.8% agarose in 1×DMEM-T) was added and the plates were incubated at 37℃ and 5% CO2 for 5 days. The cells in each well were fixed by 1 mL 4% paraformaldehyde (Sangon Biotech, China) overnight (> 12 h) at room temperature. Then, the paraformaldehyde and agarose were removed and the monolayers were stained with 0.5 ml of a 1% (v/v) crystal violet (Sangon Biotech, China) diluted in distilled water for 10 min at room temperature. Then, the plates were drained and dried, and the plaques were enumerated. As the EDIM strain is not able to grow in cell culture, it was titrated by qPCR analysis as described (4) with EDIM VP6 gene as the target.

RV SA11 strain = assay: RV SA11 diarrhea model in suckling mice; format: in vivo, BALB/c suckling mice; details: for infectious RV particles and viral antigens in intestinal contents, transcription of RV VP6 in intestinal epithelial cells: compared to controls
Method: (§1) BALB/c mice were purchased from Gempharmatech Inc. (Suzhou, China) and housed under SPF conditions (22 ± 1°C, 12 h light/dark cycle). Suckling mice were obtained by mating male and female adult BALB/c mice (12- to 16-week-old). Only the 7-day-old BALB/c suckling mice with body weights ranging from 2.5 g to 4.5 g were selected for RV diarrhea models. For induction of RV diarrhea, 1 × 10^6 PFU of SA11 strain or 10 × DD50 of EDIM strain in 20 µL PBS was orally inoculated using a pipette tip to 7-day-old BALB/c suckling mice regardless of their sexes, as sex has no significant influence on RV diarrhea occurrence. We used a scoring system to evaluate fecal consistency and color as described with some modification ([27]): no stool or brown formed stool (1 point); brown soft stool (2 points); yellow soft stool (3 points); and yellow watery stool (4 points). Mice with scores of ≥2 meant diarrhea occurrence, while mice with scores of 1 meant no diarrhea. At the end of each experiment, all infected or drug-treated suckling mice were humanely euthanized via CO2 asphyxiation.
(§2) Seven-day-old BALB/c suckling mice meeting the weight criteria within each litter were randomly assigned to experimental groups. Each litter was allocated to ensure one to three suckling mice per experimental group (variations dependent on the total number of groups). Data from suckling mice assigned to the same group across multiple litters were aggregated to achieve a total sample size of n = 3–6 per experimental group. Then, the suckling mice were orally inoculated with 1 × 10^6 PFU of the SA11 strain or 10 × DD50 of the EDIM strain, or with an equal amount of PBS as mock infection. For SA11 infection, the suckling mice were orally treated once with indicated doses of drugs or with an equal volume of DMSO as control at 2 h p.i. For EDIM infection, the suckling mice were orally treated with 0.2 mg/kg/day NVP-HSP990, 30 mg/kg/day ribavirin, or an equal amount of DMSO as control from 2 days post-infection (d p.i.) to indicated time points. Diarrhea scores and body weight were monitored from day 0 to day 7 post-infection in the SA11 infection model, and from day 0 to day 9 post-diarrhea occurrence (2–11 d p.i.) in the EDIM infection model. Blinding was applied throughout data collection and analysis.
(§3) The RV-infected suckling mice were sacrificed by CO2 asphyxiation at the indicated times, and small intestines (including duodenum, jejunum, and ileum) or colon was homogenized in 0.3 mL DMEM, centrifuged at 12,000 × g for 5 min at 4°C, and the supernatant was collected. Virus contents in the supernatant were titrated with PFA as described above. Viral antigens in the supernatant were detected with enzyme-linked immunosorbent assay (ELISA) kits for RV (CUSABIO, China) following the manufacturer’s instructions. For qPCR analysis of RV protein expression, the intestines were longitudinally split and washed in 1 mL DMEM by shaking for 30 s. Then, the tissues were cut into 0.5 cm segments, incubated in Hank’s buffer containing 2.5 mM EDTA-Na2 and 1 mM dithiothreitol (Sangon Biotech, China) at 37°C with rotation at 200 rpm for 30 min, filtered with a 70 µm strainer. Then the epithelial cells were pelleted by centrifugation at 500 × g for 5 min, purified with 20% Percoll (Cytiva, Sweden), and lysed in Trizol for RNA extraction and further qPCR analysis.
(§4) The jejunum and ileum of suckling mice were fixed in 4% paraformaldehyde for 24 h, washed with PBS twice, and then subjected to paraffin embedding and slicing at 5 µm thickness. The sections were stained with hematoxylin and eosin (Beyotime, China) and observed with an Olympus BX51 microscope, and the data were processed by CaseViewer 2.4 software. For immunohistochemistry analysis, the fixed tissues were dehydrated in 30% sucrose, embedded in Optimal Cutting Temperature compound, frozen with liquid nitrogen, and cryosliced at 10 µm thickness. […]

RV EDIM strain = assay: RV EDIM diarrhea model in suckling mice (treatment after diarrhea onset); format: in vivo, BALB/c suckling mice
Method: as §1, §2, §3, §4

[1] = 1 mg/kg oral, once, 0 to 7 days post-infection
[2] = oral, once at 2 h p.i., 24 h p.i., 1 × 10^6 PFU SA11

For `COc1cccc(-c2cc(F)ccc2[C@H]2Cc3nc(N)nc(C)c3C(=O)N2)n1` [NVP-HSP990], the IC50 (HSP90β) is listed as 0.8 nM, the IC50 (RV SA11 (G3P[2]) strain; SA11 strain in Caco-2 cells) is listed as 7.47 ± 4.84 nM and the IC50 (RV SA11 (G3P[2]) strain; SA11 strain in HT-29 cells) is listed as 3.85 ± 1.16 nM. The IC50 (RV SA11 (G3P[2]) strain; SA11 strain in MA104 cells) was 0.84 ± 0.17 nM, the “body growth of RV-infected suckling mice” value (RV SA11 strain; [1]) was “did not hinder” and the “diarrhea of RV-infected suckling mice” value (RV SA11 strain; [1]) was “significantly alleviated”. The “RV-induced foamy degeneration in the ileal epithelium” value (RV SA11 strain; SA11-infected mice, 1 mg/kg oral, 16 h p.i., hematoxylin/eosin) was “markedly attenuated”, the “infectious RV particles and viral antigens in intestinal contents, transcription of RV VP6 in intestinal epithelial cells” value (RV SA11 strain; duodenum, 1 mg/kg oral, 16 h p.i.) was “no significant differences” and the “infectious RV particles and viral antigens in intestinal contents, transcription of RV VP6 in intestinal epithelial cells” value (RV SA11 strain; jejunum and ileum, 1 mg/kg oral, 16 h p.i.) was “remarkably reduced”. The “pathological changes in the ileum” value (RV SA11 strain; mock-infected mice, NVP-HSP990 treatment alone, 1 mg/kg oral, hematoxylin/eosin) was “no appreciable pathological changes”, the “ED50 for RV diarrhea occurrence” value (RV SA11 strain; [2]) was 0.1423 mg/kg and the “ED50 for diarrhea score reduction” value (RV SA11 strain; [2]) was 0.1355 mg/kg. The “therapeutic effect on diarrhea compared to ribavirin” value (RV EDIM strain; 0.2 mg/kg/day NVP-HSP990 vs 30 mg/kg/day ribavirin, oral, 5 days) was “superior therapeutic effect”, the “weight gain in EDIM-infected suckling mice” value (RV EDIM strain; 0.2 mg/kg/day oral for 5 days, observed for another 5 days) was “did not adversely affect” and the diarrhea scores (RV EDIM strain; 0.2 mg/kg/day oral for 5 days, observed for another 5 days, compared to untreated group) was “significantly reduced”. For the same compound, the “foamy degeneration and viral infection in small intestinal epithelial cells” value (RV EDIM strain; 0.2 mg/kg/day oral from 2 d p.i., 3 consecutive days, compared to untreated controls) was “marked reduction”, the “RV viral antigens in colonic contents” value (RV EDIM strain; 0.2 mg/kg/day oral, 3 days, ELISA, vs untreated or ribavirin-treated (30 mg/kg/day) groups) was “significantly lower” and the “viral antigen (VP6 and NSP4) expression in intestinal epithelial cells” value (RV EDIM strain; 0.2 mg/kg/day oral, 3 days, qPCR, compared to untreated group) was “significantly reduced”.
